From PubChem BioAssay AID1963846 (Molecular Pharmacology Branch, DTP, NCI, 2024)

Tested on: 454973-116-R2-J3-PDC complex spheroid viability
Experiment: Anticancer human tumor 454973-116-R2-J3-PDC patient-derived pancreatic carcinoma cell line growth inhibition [POLQ]
Settings: for IC50: curve of first compound; for viability, T/C: stronger effect = lower value
In short: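 Three-cell-type spheroids modelling solid tumor plus stroma served as the readout system; POL inhibitors were tested individually and in combination, concentration ranges set by clinical Cmax where known.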

[1] = second compound 0.0316 µM, first compound 0.0316 µM
[2] = second compound 0.0316 µM, first compound 0.1 µM
[3] = second compound 0.0316 µM, first compound 0.316 µM
[4] = second compound 0.0316 µM, first compound 1 µM
[5] = second compound 0.0316 µM, first compound 3.16 µM
[6] = second compound 0.0316 µM, first compound 10 µM
[7] = second compound 0.1 µM, first compound 0.0316 µM
[8] = second compound 0.1 µM, first compound 0.1 µM
[9] = second compound 0.1 µM, first compound 0.316 µM
[10] = second compound 0.1 µM, first compound 1 µM
[11] = second compound 0.1 µM, first compound 3.16 µM
[12] = second compound 0.1 µM, first compound 10 µM
[13] = second compound 0.316 µM, first compound 0.0316 µM
[14] = second compound 0.316 µM, first compound 0.1 µM
[15] = second compound 0.316 µM, first compound 0.316 µM
[16] = second compound 0.316 µM, first compound 1 µM
[17] = second compound 0.316 µM, first compound 3.16 µM
[18] = second compound 0.316 µM, first compound 10 µM
[19] = second compound 1 µM, first compound 0.0316 µM
[20] = second compound 1 µM, first compound 0.1 µM
[21] = second compound 1 µM, first compound 0.316 µM
[22] = second compound 1 µM, first compound 1 µM
[23] = second compound 1 µM, first compound 3.16 µM
[24] = second compound 1 µM, first compound 10 µM
[25] = second compound 3.16 µM, first compound 0.0316 µM
[26] = second compound 3.16 µM, first compound 0.1 µM
[27] = second compound 3.16 µM, first compound 0.316 µM
[28] = second compound 3.16 µM, first compound 1 µM
[29] = second compound 3.16 µM, first compound 3.16 µM
[30] = second compound 3.16 µM, first compound 10 µM
[31] = second compound 10 µM, first compound 0.0316 µM
[32] = second compound 10 µM, first compound 0.1 µM
[33] = second compound 10 µM, first compound 0.316 µM
[34] = second compound 10 µM, first compound 1 µM
[35] = second compound 10 µM, first compound 3.16 µM
[36] = second compound 10 µM, first compound 10 µM
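Further: spheroids exposed to drugs for seven days before measurement.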
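Wherever viability, T/C is given: percent viability relative to DMSO vehicle control wells taken as 100%.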

## C#Cc1c(F)ccc2cc(O)cc(-c3ncc4c(N5CC6CCC(C5)N6)nc(OCC56CCCN5CC(F)C6)nc4c3F)c12 (centres undefined) + Cc1cccc(N(C)C(=O)C2C(O)CCN2c2nc(C)cc(C(F)(F)F)c2C#N)c1
Second compound 0.0316 µM
  IC50: 66.3 nM
Second compound 0.1 µM
  IC50: 71.1 nM
Second compound 0.316 µM
  IC50: 72.8 nM
Second compound 1 µM
  IC50: 60.6 nM
Second compound 3.16 µM
  IC50: 47.6 nM
Second compound 10 µM
  IC50: < 31.6 nM
[1]
  viability, T/C: 60.8%
[2]
  viability, T/C: 44.5%
[3]
  viability, T/C: 32.2%
[4]
  viability, T/C: 25.6%
[5]
  viability, T/C: 23%
[6]
  viability, T/C: 19.5%
[7]
  viability, T/C: 65.3%
[8]
  viability, T/C: 43.8%
[9]
  viability, T/C: 32.6%
[10]
  viability, T/C: 30.1%
[11]
  viability, T/C: 26.5%
[12]
  viability, T/C: 26.6%
[13]
  viability, T/C: 66.6%
[14]
  viability, T/C: 44.4%
[15]
  viability, T/C: 32.8%
[16]
  viability, T/C: 27.9%
[17]
  viability, T/C: 23.2%
[18]
  viability, T/C: 28.9%
[19]
  viability, T/C: 56%
[20]
  viability, T/C: 45.3%
[21]
  viability, T/C: 31.9%
[22]
  viability, T/C: 25.2%
[23]
  viability, T/C: 26.5%
[24]
  viability, T/C: 25.3%
[25]
  viability, T/C: 52.9%
[26]
  viability, T/C: 44.5%
[27]
  viability, T/C: 35.1%
[28]
  viability, T/C: 23.9%
[29]
  viability, T/C: 28.2%
[30]
  viability, T/C: 24.4%
[31]
  viability, T/C: 50%
[32]
  viability, T/C: 38.5%
[33]
  viability, T/C: 36%
[34]
  viability, T/C: 31.8%
[35]
  viability, T/C: 29.1%
[36]
  viability, T/C: 23.7%

## O=C(Nc1ccc(O)c(NS(=O)(=O)c2ccc(F)cc2)c1)c1ccc(-c2ccccc2)cc1 + Cc1cccc(N(C)C(=O)C2C(O)CCN2c2nc(C)cc(C(F)(F)F)c2C#N)c1
Second compound 0.0316 µM
  IC50: > 10000 nM
Second compound 0.1 µM
  IC50: > 10000 nM
Second compound 0.316 µM
  IC50: > 10000 nM
Second compound 1 µM
  IC50: > 10000 nM
Second compound 3.16 µM
  IC50: > 10000 nM
Second compound 10 µM
  IC50: > 10000 nM
[1]
  viability, T/C: 98.1%
[2]
  viability, T/C: 108%
[3]
  viability, T/C: 87.1%
[4]
  viability, T/C: 100%
[5]
  viability, T/C: 114%
[6]
  viability, T/C: 82.2%
[7]
  viability, T/C: 96.8%
[8]
  viability, T/C: 97.2%
[9]
  viability, T/C: 101%
[10]
  viability, T/C: 111%
[11]
  viability, T/C: 102%
[12]
  viability, T/C: 85.1%
[13]
  viability, T/C: 105%
[14]
  viability, T/C: 92.7%
[15]
  viability, T/C: 102%
[16]
  viability, T/C: 106%
[17]
  viability, T/C: 110%
[18]
  viability, T/C: 84.9%
[19]
  viability, T/C: 98.9%
[20]
  viability, T/C: 98.1%
[21]
  viability, T/C: 100%
[22]
  viability, T/C: 103%
[23]
  viability, T/C: 108%
[24]
  viability, T/C: 85%
[25]
  viability, T/C: 107%
[26]
  viability, T/C: 98.2%
[27]
  viability, T/C: 98.4%
[28]
  viability, T/C: 103%
[29]
  viability, T/C: 112%
[30]
  viability, T/C: 81.4%
[31]
  viability, T/C: 102%
[32]
  viability, T/C: 105%
[33]
  viability, T/C: 104%
[34]
  viability, T/C: 105%
[35]
  viability, T/C: 95.8%
[36]
  viability, T/C: 74.3%
